In ChEMBL document CHEMBL4840382, “Novel Substituted Heteroaryl Compounds for Treating Huntington's Disease” (ACS Med Chem Lett, 2021):

target: Huntingtin (Homo sapiens, UniProt P42858); assay: Inhibition of endogenous Huntingtin protein (unknown origin) incubated for overnight in presence of MW1/MAB2166 monoclonal antibody by ELISA-based MSD electrochemiluminescence assay
Sequence (P42858 whole entry): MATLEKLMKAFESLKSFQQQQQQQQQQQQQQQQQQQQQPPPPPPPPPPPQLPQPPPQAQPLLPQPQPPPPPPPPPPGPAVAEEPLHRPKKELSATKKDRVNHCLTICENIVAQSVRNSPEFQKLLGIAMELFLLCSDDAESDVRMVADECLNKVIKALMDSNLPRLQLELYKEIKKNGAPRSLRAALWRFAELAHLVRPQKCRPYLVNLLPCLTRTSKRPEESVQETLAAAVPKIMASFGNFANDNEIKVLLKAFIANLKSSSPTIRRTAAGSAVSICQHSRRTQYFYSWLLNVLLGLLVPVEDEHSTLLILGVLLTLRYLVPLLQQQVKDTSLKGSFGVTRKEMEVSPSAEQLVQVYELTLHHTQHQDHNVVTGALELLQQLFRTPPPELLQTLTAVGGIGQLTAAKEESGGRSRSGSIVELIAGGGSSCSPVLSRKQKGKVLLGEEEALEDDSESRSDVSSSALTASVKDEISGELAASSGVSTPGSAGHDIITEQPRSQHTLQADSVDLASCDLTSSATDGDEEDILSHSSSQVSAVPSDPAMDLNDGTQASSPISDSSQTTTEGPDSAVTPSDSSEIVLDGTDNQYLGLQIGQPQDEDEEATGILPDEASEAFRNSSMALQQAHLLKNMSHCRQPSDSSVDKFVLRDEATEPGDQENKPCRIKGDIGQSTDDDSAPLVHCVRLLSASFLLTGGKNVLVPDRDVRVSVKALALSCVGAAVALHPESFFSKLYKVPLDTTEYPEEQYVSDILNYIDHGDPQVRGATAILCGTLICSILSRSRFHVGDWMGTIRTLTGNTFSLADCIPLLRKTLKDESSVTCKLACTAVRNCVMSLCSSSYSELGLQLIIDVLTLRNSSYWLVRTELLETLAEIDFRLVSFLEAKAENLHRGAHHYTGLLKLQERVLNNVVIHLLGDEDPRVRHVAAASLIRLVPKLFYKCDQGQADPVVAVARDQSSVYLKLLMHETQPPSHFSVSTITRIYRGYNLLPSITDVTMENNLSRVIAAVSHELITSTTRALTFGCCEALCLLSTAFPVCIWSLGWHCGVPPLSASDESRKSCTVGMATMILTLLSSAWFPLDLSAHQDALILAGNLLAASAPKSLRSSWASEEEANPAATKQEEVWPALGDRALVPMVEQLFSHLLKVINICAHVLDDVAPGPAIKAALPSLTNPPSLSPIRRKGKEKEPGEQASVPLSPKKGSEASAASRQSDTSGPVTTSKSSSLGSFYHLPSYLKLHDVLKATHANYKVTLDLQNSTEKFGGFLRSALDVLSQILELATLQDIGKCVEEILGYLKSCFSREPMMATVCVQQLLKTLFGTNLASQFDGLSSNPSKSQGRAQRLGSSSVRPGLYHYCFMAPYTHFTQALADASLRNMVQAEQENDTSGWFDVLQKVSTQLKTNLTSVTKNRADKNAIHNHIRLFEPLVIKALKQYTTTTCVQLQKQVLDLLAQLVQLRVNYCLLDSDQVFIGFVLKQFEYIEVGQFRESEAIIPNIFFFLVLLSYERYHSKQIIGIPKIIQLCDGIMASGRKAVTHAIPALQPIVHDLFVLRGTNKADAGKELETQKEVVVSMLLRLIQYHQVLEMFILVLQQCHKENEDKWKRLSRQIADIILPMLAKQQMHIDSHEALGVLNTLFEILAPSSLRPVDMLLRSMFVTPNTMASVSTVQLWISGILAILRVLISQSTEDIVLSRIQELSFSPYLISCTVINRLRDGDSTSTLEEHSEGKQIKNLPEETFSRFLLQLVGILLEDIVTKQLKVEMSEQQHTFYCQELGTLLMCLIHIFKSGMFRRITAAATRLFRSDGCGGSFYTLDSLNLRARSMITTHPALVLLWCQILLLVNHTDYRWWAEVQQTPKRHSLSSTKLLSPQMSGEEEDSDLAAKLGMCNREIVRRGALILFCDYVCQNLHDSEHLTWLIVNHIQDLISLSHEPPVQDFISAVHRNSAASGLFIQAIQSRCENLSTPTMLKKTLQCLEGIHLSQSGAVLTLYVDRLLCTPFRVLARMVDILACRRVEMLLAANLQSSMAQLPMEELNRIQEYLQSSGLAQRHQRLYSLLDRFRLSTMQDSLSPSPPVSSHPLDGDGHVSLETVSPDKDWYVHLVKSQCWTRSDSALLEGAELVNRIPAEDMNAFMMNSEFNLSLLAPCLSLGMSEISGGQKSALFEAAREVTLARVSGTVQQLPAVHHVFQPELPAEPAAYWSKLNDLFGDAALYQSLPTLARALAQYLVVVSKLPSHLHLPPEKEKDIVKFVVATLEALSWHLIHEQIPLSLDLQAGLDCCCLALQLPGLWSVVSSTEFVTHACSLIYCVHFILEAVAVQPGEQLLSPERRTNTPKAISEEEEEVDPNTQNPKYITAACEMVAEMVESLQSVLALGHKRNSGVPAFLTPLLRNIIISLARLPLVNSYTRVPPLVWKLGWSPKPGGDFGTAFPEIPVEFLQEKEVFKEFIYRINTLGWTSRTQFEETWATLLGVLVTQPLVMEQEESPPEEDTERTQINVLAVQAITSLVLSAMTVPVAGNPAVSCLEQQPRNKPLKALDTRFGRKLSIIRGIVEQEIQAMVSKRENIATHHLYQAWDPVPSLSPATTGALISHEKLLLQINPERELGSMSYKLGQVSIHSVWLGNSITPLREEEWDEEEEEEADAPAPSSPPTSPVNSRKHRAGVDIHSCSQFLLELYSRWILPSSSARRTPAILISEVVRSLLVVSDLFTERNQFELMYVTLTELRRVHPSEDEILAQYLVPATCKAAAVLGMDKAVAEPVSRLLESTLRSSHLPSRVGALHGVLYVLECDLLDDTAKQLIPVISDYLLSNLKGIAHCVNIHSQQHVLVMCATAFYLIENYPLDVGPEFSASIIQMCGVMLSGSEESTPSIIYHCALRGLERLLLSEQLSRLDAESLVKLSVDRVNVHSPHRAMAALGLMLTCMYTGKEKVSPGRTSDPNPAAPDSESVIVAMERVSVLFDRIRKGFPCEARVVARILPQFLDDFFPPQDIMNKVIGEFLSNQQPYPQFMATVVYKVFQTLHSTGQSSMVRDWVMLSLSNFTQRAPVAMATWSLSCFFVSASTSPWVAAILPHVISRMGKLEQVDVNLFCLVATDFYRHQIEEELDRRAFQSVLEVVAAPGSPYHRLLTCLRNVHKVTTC

Row | IC50 [nM] | Compound
1 | 2.1 | CC1CN(c2ncc(-c3ccc(-c4cc(F)c5nn(C)cc5c4)cc3O)nn2)CCN1 (stereo unspecified)
2 | 2.3 | Cc1cn2cc(-c3ccc(-c4cnc(N5CCN[C@@H](C(C)C)C5)nn4)c(O)c3)ncc2n1
3 | 2.1 | Oc1cc(-c2c[nH]nc2F)ccc1-c1cnc(N2CCN[C@@H](C3CC3)C2)nn1
4 | 2.2 | CCC1CN(c2ncc(-c3ccc(-c4cc(F)c5nc(C)cn5c4)cc3O)nn2)CCN1 (stereo unspecified)
5 | 1.6 | Cn1cc2cc(-c3ccc(-c4cnc(N5CCNC(CO)C5)nn4)c(O)c3)cc(F)c2n1 (stereo unspecified)
6 | 1.7 | Cn1nc2cc(-c3ccc(-c4cnc(N5CCN[C@@H](C6CC6)C5)nn4)c(O)c3)cnc2n1
